How the values were obtained:
[1] = test system: Swiss albino, white male mice; assay: acute toxicity and synergism of acute toxicity in mice; assay type: in vivo; conditions: for number of mice dead, with Dimetilan: 48 hours; for number of mice dead, with Dimetilan / number of mice dead, synergist alone: eight mice; for number of mice dead, with GS 13005: GS 13005 71 + synergist 213 mg/kg; for number of mice dead, with Methadone: Methadone 32 + synergist 215 mg/kg; for number of mice dead, with Secobarbital: Secobarbital 90 + synergist 215 mg/kg; for number of mice dead, synergist alone: synergist 1000 mg/kg i.p., Dimetilan 0, 72 hours
Outline: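 Male Swiss albino mice (23 to 27 g, five to six weeks), eight per dose, dosed intraperitoneally in corn oil: dimetilan alone at 4 to 32 mg per kg, synergists alone at 1000 mg/kg with deaths counted at 72 hours. For synergism, synergist given 1 hour before insecticide, lethality observed for at least 6 hours.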

male mice = assay: extension of sleeping time of depressant drugs by synergists; assay type: in vivo, male mice (Swiss albino white); conditions: for Mean Sleeping Time, Noludar / Relative Sleeping Time, Noludar: Noludar 110 mg/kg; for Relative Sleeping Time, Noludar / Relative Sleeping Time, Secobarbital: treated/control; for Mean Sleeping Time, Secobarbital / Relative Sleeping Time, Secobarbital: Secobarbital 37 mg/kg
Outline: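 Swiss albino male mice (~38 days, 25-30 g) given synergist at 74.0 or 110.0 mg/kg in corn oil 1 h before Secobarbital 37.0 mg/kg or Noludar 110.0 mg/kg in water. Sleeping time measured from drug dosing to righting-reflex recovery; relative sleeping time = treated ÷ drug-only control.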

[2] = test system: IN/WHO strain house flies; assay: topical application, percent kill after 24 hours, susceptible IN/WHO strain; assay type: in vivo, female); conditions: for percent kill after 24 hours, with Diazinon: Diazinon 0.03 + synergist 0.15 μg/fly; for percent kill after 24 hours, synergist alone: insecticide 0, synergist 1 μg/fly
Outline: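 Insecticide plus synergist in acetone, 1.0 μl applied to the thorax of CO2-anesthetized 3-to-5-day-old female IN/WHO house flies, doses in μg/fly. Flies held 10 per dish, 3-5 dishes per treatment, with skim milk. Percent mortality scored after 24 h.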

[3] = Dimetilan 8 + synergist 240 mg/kg i.p.
[4] = synergist 110 mg/kg one hour prior
[5] = Mobam 0.05 + synergist 0.25 μg/fly
[6] = Mobam 0.10 + synergist 0.50 μg/fly
[7] = Mobam 0.20 + synergist 1 μg/fly
[8] = Dimetilan 8 + synergist 80 mg/kg i.p.
[9] = synergist 74 mg/kg one hour prior
[10] = GS 13005 0.10 + synergist 0.50 μg/fly

| SMILES | number of mice dead, with Dimetilan [1, 3] | Mean Sleeping Time, Noludar (male mice; [4]) [min] | Relative Sleeping Time, Noludar (male mice; synergist 110 mg/kg) | Mean Sleeping Time, Secobarbital (male mice; [4]) [min] | Relative Sleeping Time, Secobarbital (male mice; synergist 110 mg/kg) | percent kill after 24 hours, with Diazinon [2] [%] | percent kill after 24 hours, with Mobam [2, 5] [%] | percent kill after 24 hours, with Mobam [2, 6] [%] | percent kill after 24 hours, with Mobam [2, 7] [%] | percent kill after 24 hours, synergist alone [2] [%] | number of mice dead, with Dimetilan [1, 8] | Mean Sleeping Time, Secobarbital (male mice; [9]) [min] | Relative Sleeping Time, Secobarbital (male mice; synergist 74 mg/kg) | percent kill after 24 hours, with GS 13005 [2, 10] [%] | number of mice dead, with GS 13005 [1] | number of mice dead, with Methadone [1] | number of mice dead, with Secobarbital [1] | number of mice dead, synergist alone [1] | other results |
| --- | --- | --- | --- | --- | --- | --- | --- | --- | --- | --- | --- | --- | --- | --- | --- | --- | --- | --- | --- |
| C#CCOCc1ccc(Cl)c(Cl)c1 [II-C] | 0 | 50 | 1.3 | 33 | 1.0 | 23 | 4 | 27 | 99 | 0 |  |  |  |  |  |  |  |  |  |
| C#CCON=Cc1cccc([N+](=O)[O-])c1 [I-B] | 6 | 70 | 2.4 | 106 | 1.7 | 22 | 0 | 0 | 73 | 0 | 1 | 54 | 1.5 | 73 |  |  |  |  | percent kill after 24 hours, with GS 13005 ([2]; GS 13005 0.05 + synergist 0.25 μg/fly): 2%; percent kill after 24 hours, with GS 13005 ([2]; GS 13005 0.10 + synergist 0.125 μg/fly): 13%; percent kill after 24 hours, with GS 13005 ([2]; GS 13005 0.10 + synergist 0.25 μg/fly): 27%; percent kill after 24 hours, with Mobam ([2]; Mobam 0.20 + synergist 0.25 μg/fly): 13%; percent kill after 24 hours, with Mobam ([2]; Mobam 0.20 + synergist 0.50 μg/fly): 30% |
| C#CCOCc1c(Cl)cccc1Cl [II-H] | 6 | 68 | 2.2 | 51 | 2.1 |  |  |  | 100 | 10 | 0 | 44 | 1.4 | 100 | 7 | 4 | 0 | 0 | percent kill after 24 hours, synergist alone (GS 13005 part of Table XXXI) ([2]; GS 13005 0, synergist 1 μg/fly): 10% |
| C#CCON=C(C)c1ccc2ccccc2c1 [I-F] | 4 | 55 | 1.4 | 70 | 2.2 | 24 |  |  | 47 | 0 | 0 | 32 | 1.1 | 45 |  |  |  |  |  |
| C#CCOCc1ccc(Cl)c(Cl)c1Cl [II-D] | 0 | 46 | 1.0 | 60 | 1.2 | 40 | 10 | 50 | 100 | 0 |  |  |  |  | 3 | 2 | 1 | 0 | percent mortality 24 hours, with Mobam ([2]; Mobam 0.13 μg/fly, synergist/insecticide 0.5/1): 7%; percent mortality 24 hours, with Mobam ([2]; Mobam 0.13 μg/fly, synergist/insecticide 1/1): 17%; percent mortality 24 hours, with Mobam ([2]; Mobam 0.13 μg/fly, synergist/insecticide 5/1): 50%; percent mortality 24 hours, with Mobam ([2]; Mobam 0.25 μg/fly, synergist/insecticide 0.5/1): 30%; percent mortality 24 hours, with Mobam ([2]; Mobam 0.25 μg/fly, synergist/insecticide 1/1): 63%; percent mortality 24 hours, with Mobam ([2]; Mobam 0.25 μg/fly, synergist/insecticide 2/1): 83%; percent mortality 24 hours, with Mobam ([2]; Mobam 0.25 μg/fly, synergist/insecticide 5/1): 97%; percent mortality 24 hours, with Mobam ([2]; Mobam 0.50 μg/fly, synergist/insecticide 0.5/1): 57%; percent mortality 24 hours, with Mobam ([2]; Mobam 0.50 μg/fly, synergist/insecticide 1/1): 100%; percent mortality 24 hours, with Mobam ([2]; Mobam 0.50 μg/fly, synergist/insecticide 2/1): 97%; percent mortality 24 hours, with Mobam ([2]; Mobam 0.50 μg/fly, synergist/insecticide 5/1): 100%; percent mortality 24 hours, with Mobam ([2]; Mobam 1.0 μg/fly, synergist/insecticide 0.5/1): 97%; percent mortality 24 hours, with Mobam ([2]; Mobam 1.0 μg/fly, synergist/insecticide 1/1): 100%; percent mortality 24 hours, with Mobam ([2]; Mobam 1.0 μg/fly, synergist/insecticide 2/1): 100%; percent mortality 24 hours, with Mobam ([2]; Mobam 1.0 μg/fly, synergist/insecticide 5/1): 100% |
